Measured values from publication PMC7932537, “Quantitative profiling of protease specificity” (PLoS Computational Biology, 2021).

What was measured:
[1] = tested on: MMP-2; test: N-terminomic (TMT) analysis of MMP-treated HEK293 secretome: isotopic enrichment of novel N-termini; type: biochemical, human; conditions: for isotopic enrichment (log2(ratio)): MMP2 cleavages in HEK293 cell proteins, determined by LC-MS/MS, novel N-termini, sections log2(ratio) >3σ, 2σ-3σ, 1σ-2σ, RP above 4.5
Experimental: (§1) This was done to achieve a reasonable compromise between the false positive and false negative rates based on the statistical model developed by the authors. […] (See Methods for details).
(§2) HEK293 cells were seeded in 150-mm tissue culture dishes (Corning) and grown to confluence. The confluent cultures were washed with PBS several times to remove serum proteins and kept in serum-free DMEM supplemented with 1 μM GM6001 for 72 hours at 37 C, 5% CO2. The conditioned media was centrifuged at 10,000 x g for 30 minutes at 4 C and concentrated ~100-fold using Centricon Plus-70 (AMD Millipore) 3-kDa m.w. cut-off ultrafilter, and the buffer was exchanged to 50 mM HEPES pH 7.0 containing 150 mM NaCl and 10 mM CaCl2 (Reaction Buffer) using a PD-10 desalting column (GE Healthcare). Aliquots containing 240 μg total protein were incubated at 37 C in the presence of 750 nM MMP2 or 9 or the Reaction Buffer alone for 2 hours. Each reaction was carried out in duplicate. The reactions were stopped by addition of 20 mM EDTA and subjected to denaturation/reduction (4M Urea and 10 mM TCEP, 1 h, 22°C) and alkylation (20 mM iodoacetamide, 30 min, 22°C, in dark). […] The TMT-labeled samples were pooled together, and subjected to TCA precipitation (20% TCA, 16 h, 4°C). Each pellet was washed with -20°C acetone, recovered in 50 mM Tris-HCl pH 8.0, and then digested with trypsin/Lys-C (Promega) for 16 h at 37°C. Digestions were stopped with 0.2% TFA and centrifuged to remove insoluble material. The supernatants were then desalted using Sep-Pak C18 cartridge (50 mg), and then lyophilized.
(§3) Dried pooled sample was reconstituted in 20 mM ammonium formate pH ~10 and fractionated using a Waters Acquity BEH C18 column (2.1x 15 cm, 1.7 μm pore size) mounted on an M-Class Ultra Performance Liquid Chromatography (UPLC) system (Waters). […] A total of 32 fractions were collected and pooled in a non-contiguous manner into 16 total fractions. Pooled fractions were dried to completeness in a SpeedVac concentrator prior to mass spectrometry analysis.
(§4) Dried peptide fractions were reconstituted with 2% ACN-0.1% FA and analyzed by LC-MS/MS using a Proxeon EASY nanoLC system (Thermo Fisher Scientific) coupled to a Q-Exactive Plus mass spectrometer (Thermo Fisher Scientific). […] The mass spectrometer was operated in positive data-dependent acquisition mode. MS1 spectra were measured with a resolution of 70,000 (AGC target: 1e6; mass range: 350–1700 m/z).
(§5) The false discovery rate (FDR) filter for spectrum and protein identification was set to 1%. Carbamidomethylation of cysteines was searched as a fixed modification, while oxidation of methionines and N-terminal acetylation were searched as variable modifications. Enzyme was set to trypsin in a semispecific mode and a maximum of two missed cleavages was allowed for searching. To obtain quantification of the TMT-labeled N-termini, two independent searches were performed–one with TMT10plex MS2 N-terminal reporter quantification and the other for quantification of N-terminal and lysine sidechain.

[2] = tested on: MMP-9; test: as above; type: biochemical, human; conditions: for isotopic enrichment (log2(ratio)) (acc.to MMP9): HEK293 proteins; for isotopic enrichment (log2(ratio)): MMP9 cleavages in HEK293 cell proteins, determined by LC-MS/MS, log2(ratio) range (>3σ, 2σ-3σ, 1σ-2σ)
Experimental: as §1, §2, §3, §4, §5

[3] = MS detected cleavage sequence, unique part of MMP2 selectome
[4] = MS detected cleavage sequence, HEK293 proteins, common MMP2-9 selectome
[5] = MMP9, common set of MMP2-9 selectome, LC-MS/MS
[6] = MS detected cleavage sequence, common MMP2-9 selectome
[7] = MMP2 cleaved HEK293 proteins, common set of MMP2-9 selectome, LC-MS/MS
[8] = MS detected cleavage sequence, HEK293 proteins, unique part of MMP2 selectome

Substance | isotopic enrichment (log2(ratio)) [1] | isotopic enrichment (log2(ratio)) (acc.to MMP9) [2, 3] | isotopic enrichment (log2(ratio)) (acc.to MMP2) [1, 4] | isotopic enrichment (log2(ratio)) (acc.to MMP9) [2, 5] | isotopic enrichment (log2(ratio)) [2] | isotopic enrichment (log2(ratio)) (acc.to MMP9) [2, 6] | isotopic enrichment (log2(ratio)) (acc.to MMP2) [1, 7] | isotopic enrichment (log2(ratio)) (acc.to MMP2) [1, 8]
NFIQS-IISTVE | 0.903 log2(ratio) | 1.111 log2(ratio) | – | – | – | – | – | –
PQAKA-LLQDKD | – | – | 0.9928 log2(ratio) | 1.48 | 1.48 | 1.48 log2(ratio) | – | –
EHPVL-LTEAPL | – | – | 1.599 log2(ratio) | – | 3.462 | 3.462 log2(ratio) | – | –
DAPRA-VFPSIV | – | – | 1.669 log2(ratio) | 1.811 | 1.811 | 1.811 log2(ratio) | 1.669 | –
GGGSA-LAGGAG | – | 2.488 log2(ratio) | – | – | – | – | – | 3.0018 log2(ratio)
HLVRN-IQLEQP | – | – | 3.263 log2(ratio) | 3.981 | 3.981 | 3.981 log2(ratio) | 3.263 | –
APPAA-VAAVAG | – | – | 2.4957 log2(ratio) | – | 1.731 | 1.731 log2(ratio) | – | –
DMIDN-LLSPDL | – | 1.029 log2(ratio) | – | – | – | – | – | 1.245 log2(ratio)
GYIGT-YCGQPV | – | 2.478 log2(ratio) | – | – | – | – | – | 2.548 log2(ratio)
PFPDG-LAEDID | – | – | 0.9928 log2(ratio) | – | 3.878 | 3.878 log2(ratio) | – | –
MEPVA-HFGLGK | – | – | 0.3448 log2(ratio) | – | 1.731 | 1.731 log2(ratio) | – | –
VCPRG-YVTSTD | – | – | 2.108 log2(ratio) | 5.174 | 5.174 | 5.174 log2(ratio) | 2.108 | –
TRPLA-VEVVTE | – | – | 4.353 log2(ratio) | 4.995 | 4.995 | 4.995 log2(ratio) | 4.353 | –
YNPMA-LYGSVP | – | – | 0.669 log2(ratio) | – | 1.709 | 1.709 log2(ratio) | – | –
LDVGG-LQETDK | – | – | 3.076 log2(ratio) | 1.718 | 1.718 | 1.718 log2(ratio) | 3.076 | –
GEVQA-MLGQST | – | – | 0.5656 log2(ratio) | – | 1.4957 | 1.4957 log2(ratio) | – | –
PTAAA-IAYGLD | 1.585 log2(ratio) | – | – | 0.8074 | – | – | 1.585 | –
VTPAN-ASGIND | – | 1.864 log2(ratio) | – | – | – | – | – | 0.9486 log2(ratio)
FHPEQ-LITGKE | – | – | 2.036 log2(ratio) | 2.628 | 2.628 | 2.628 log2(ratio) | 2.036 | –
VAAKN-LQEAEE | – | – | 1.485 log2(ratio) | 2.192 | 2.192 | 2.192 log2(ratio) | 1.485 | –

Substance | isotopic enrichment (log2(ratio)) [1] | isotopic enrichment (log2(ratio)) (acc.to MMP9) [2, 3] | isotopic enrichment (log2(ratio)) (acc.to MMP2) [1, 4] | isotopic enrichment (log2(ratio)) (acc.to MMP9) [2, 5] | isotopic enrichment (log2(ratio)) [2] | isotopic enrichment (log2(ratio)) (acc.to MMP9) [2, 6] | isotopic enrichment (log2(ratio)) (acc.to MMP2) [1, 7] | isotopic enrichment (log2(ratio)) (acc.to MMP2) [1, 8]
RTLRA-VCGQPG | – | – | 0.2987 log2(ratio) | – | 1.47 | 1.47 log2(ratio) | – | –
LFIGG-LSFETT | – | 1.4957 log2(ratio) | – | – | – | – | – | 2.3505 log2(ratio)
GFLAW-LYNESP | – | – | 2.43 log2(ratio) | 1.774 | 1.774 | 1.774 log2(ratio) | 2.43 | –
PALAY-LASAPP | – | 0.4436 log2(ratio) | – | – | – | – | – | 1.345 log2(ratio)
PEPES-WNAAQH | – | 1.956 log2(ratio) | – | – | – | – | – | 1.66 log2(ratio)
IFLRE-LISNAS | – | – | 1.176 log2(ratio) | 1.628 | 1.628 | 1.628 log2(ratio) | 1.176 | –
FSVSS-LAEGSV | 1.257 log2(ratio) | – | – | 1.22 | – | – | 1.257 | –
TQQAQ-LAAAAE | – | 0.8319 log2(ratio) | – | – | – | – | – | 2.74 log2(ratio)
VVPFG-VPASAT | – | – | 0.189 log2(ratio) | – | 2.014 | 2.014 log2(ratio) | – | –
KRIAN-LQTDLS | – | – | 1.918 log2(ratio) | 1.791 | 1.791 | 1.791 log2(ratio) | 1.918 | –
SEPAD-FKVDED | 1.891 log2(ratio) | – | – | 1.104 | – | – | 1.891 | –
SSPRH-SEAATA | – | – | 3.599 log2(ratio) | 4.654 | 4.654 | 4.654 log2(ratio) | 3.599 | –
AGARG-IQGPQG | – | – | 0.8156 log2(ratio) | – | 1.521 | 1.521 log2(ratio) | – | –
EEPLN-VGSVAA | – | – | 2.637 log2(ratio) | 3.642 | 3.642 | 3.642 log2(ratio) | 2.637 | –
GRSAP-LAAGCP | – | 3.246 log2(ratio) | – | – | – | – | – | 3.5097 log2(ratio)
KYIGN-MHGNEA | 1.124 log2(ratio) | – | – | 1.07 | – | – | 1.124 | –
VLPVN-VTDYCQ | – | – | 0.7225 log2(ratio) | – | 3.756 | 3.756 log2(ratio) | – | –
QSPVA-VSQSKP | – | – | 4.031 log2(ratio) | 4.621 | 4.621 | 4.621 log2(ratio) | 4.031 | –
LPAMP-MQGGAQ | – | – | 3.329 log2(ratio) | 3.876 | 3.876 | 3.876 log2(ratio) | 3.329 | –
